Data: patent US20230218773A1 (priority 2020, published 2023)
Numbered stars: 1 amine (or outer) side, 2 acyl side, 3 side chain; on linkers, the order of the positions; unused ones are H or OH. Square brackets hold non-standard residues; d marks the D form. Peptide text beside a SMILES is read from it. * marks the point of attachment. Dolaproine = CO[C@@H]([C@@H]1CCCN1)[C@@H](C)C(=O)O; Hexanoyl(6-maleimido) = O=C1C=CC(=O)N1CCCCCC(=O)*; Dil = CC[C@H](C)[C@H](NC)[C@@H](CC(=O)O)OC; PABC = O=C(OCc1ccc(N[*:1])cc1)[*:2]; X1 = C[C@@H](N*)[C@@H](O)c1ccccc1; Cit = NC(=O)NCCC[C@H](N)C(=O)O; NMeV = CN[C@H](C(=O)O)C(C)C

Columns and labels:
MIA PaCa2 cells [1] = test: Uptake of fluorescein-albumin conjugate with macropinocytosis inhibitor, MIA PaCa2 cells; format: cell-based, human; settings: EIPA 50 μM and 75 μM, flow cytometer
Procedure: (§1) FIGS. 10A-10B: (A) MIA PaCa2 cells and (B) PANC1 cells were seeded in 12-well plates at 5×10^5 cells/well and allowed to attach overnight. Cells were first starved in serum free medium for 2 hours followed by treatment with macropinocytosis inhibitor (EIPA: 5-(N-Ethyl-N-isopropyl)amiloride) for 30 min. […] Then cells were detached and analyzed by flow cytometer (Accuri). […] (*p<0.05, **p<0.01)

PANC1 cells [2] = test: Uptake of fluorescein-albumin conjugate with macropinocytosis inhibitor, PANC1 cells; format: cell-based, human; settings: EIPA 50 μM and 75 μM, flow cytometer
Procedure: as §1

MIA PaCa2 cells [3] = test: MTT assay, MIA PaCa2 cells; format: cell-based, human
From the text: (§2) Cell lines and culture: Human pancreatic cancer cell line MIA PaCa2 cells and primary umbilical vein endothelial cells (HUVEC) were purchased from American Type Culture Collection (ATCC). Human pancreatic cancer cell line PANC1 cells were kindly provided by Dr. Zhengrong Cui (College of Pharmacy, The University of Texas at Austin). Mouse mT4-2D pancreatic cancer cell line, which is derived from a Kras^+/LSL-G12DTp53^+/LSL-R172HPdx1-Cre transgenic model of pancreatic cancer, was kindly provided by Dr. Kyaw Aung (Livestrong Cancer Institutes, Dell Medical School, The University of Texas at Austin). MIA PaCa2 cells, PANC1, and mT4-2D cells were maintained in Dulbecco's […] with high glucose (Corning). Cell culture medium was supplemented with 10% fetal bovine serum (Gibco) and 100 U/mL penicillin-streptomycin (Gibco). HUVEC cells were maintained according to protocol provided by ATCC. All cells were maintained at 37° C. in a humidified atmosphere with 5% carbon dioxide.
(§3) MTT Assay: Cells were seeded in 96 well plates at a density of 5,000 cells/well. Cells were incubated overnight to allow attachment to the bottom of the plates. […] Untreated cells were used as control. After the treatments, 10 μL of MTT (3-(4,5-Dimethylthiazol-2-yl)-2,5-Diphenyltetrazolium Bromide, 5 mg/mL) was added to each well and incubated for an additional 4 hours. Then, the medium was replaced with 150 μL dimethyl sulfoxide (DMSO). After the formazan crystals were completely dissolved, the absorbance at 570 nm was read by a plate reader (Infinite®200 Pro, Tecan). Cell survival rate was calculated as follows: […]
(§4) The IC50 (half maximal inhibitory concentration) was calculated using GraphPad Prism 8.

PANC1 cells [4] = test: MTT assay, PANC1 cells; format: cell-based, human
From the text: as §2, §3, §4

HUVEC cells = test: MTT assay, HUVEC cells; format: cell-based, human
From the text: as §2
MTT Assay: Cells were seeded in 96 well plates at a density of 5,000 cells/well. […] After the formazan crystals were completely dissolved, the absorbance at 570 nm was read by a plate reader (Infinite®200 Pro, Tecan). Cell survival rate was calculated as follows: […]
as §4

[5] = Plasma pharmacokinetics of free and total MMAE in MIA PaCa2 tumor-bearing mice; format: in vivo; settings: for plasma concentration of free MMAE: 10 min after single intravenous dose, 0.5 mg/kg MMAE equivalent
Procedure: (§5) Quantification of MMAE by LC-MS: An Agilent 1260 Infinity liquid chromatography system (G1312B) with an Agilent 6530 Q-TOF mass spectrometer was used to detect the drug MMAE. 5 μL of sample was injected into an Eclipse Plus C18 column (50×2.1 mm, 5 μm) followed by a gradient elution at 0.7 mL/min. […] Electrospray ionization source was used in positive mode. To derive standard curves for MMAE, drug standards were spiked into blank matrix along with internal standard. Samples were then prepared for LC-MS analysis. MMAE was monitored at m/z 740 [M+Na]+, 719 [M+H]+, 371 [M+Na+1-1]^2+ and 360 [M+2H]^2±. Deuterated (D8) MMAE as internal standard was monitored at m/z 748 [M+Na]+, 727 [M+H]+, 375 [M+Na+1-1]^2+ and 364 [M+2H]^2±. The peak area of each drug standard was derived by the peak area of internal standard. The peak area ratios were then plotted as a function of standard concentrations and data points were fitted using linear regression (GraphPad). MMAE concentrations in test samples were quantified using the peak area ratio between MMAE and D8-MMAE and calculated using the standard curves.
(§6) Pharmacokinetics and tissue distribution: Thirty-six mice bearing MIA PaCa2 tumors were equally divided into 4 groups. […] All treatment arms were dosed with an equivalent amount of MMAE at 0.5 mg/kg. At 10 min, 24 h, 48 h, 72 h, 96 h and 168 h post-administration, blood samples were collected from 3 mice in each group through tail vein. Plasma was separated immediately using BD microtainer. At 24 h, 72 h and 168 h after administration, 3 mice from each group were euthanized to collect liver, kidney, and tumor tissue samples. Plasma and tissue samples were stored at −80° C. until further analysis.
(§7) To determine the amount of free MMAE in plasma samples, 1 μL D8-MMAE (250 ng/mL) internal control was added into 10 μL plasma samples and then mixed with 89 μL acetonitrile. The mixture was thoroughly mixed and centrifuged (12,000 rpm, 20 min, 4° C.). The supernatant was collected for LC-MS quantification. To determine free MMAE in mouse tissues, weighed tissues were homogenized with ice-cold PBS containing protease inhibitors (cOmplete™ ULTRA Tablets, Roche) using a tissue homogenizer (Fisher Scientific) to a final concentration of 600 mg/mL. The homogenized suspension was centrifuged at 12,000 rpm for 20 min at 4° C. As an internal control, 1 μL D8-MMAE (250 ng/mL) was added into 20 μL of the supernatant and then mixed with 79 μL acetonitrile. After the mixture was mixed and centrifuged, the supernatant was collected for LC-MS for quantification.
(§8) Briefly, freshly prepared papain (Sigma-Aldrich) was added to plasma and tissue samples at a final concentration of 2 mg/mL, and the mixtures were incubated at 40° C. for 16 hours. The resulting samples were treated as method described above for LC-MS quantification.

[6] = Maximum tolerated dose in healthy athymic NCr nude mice; format: in vivo
Procedure: Maximum tolerated dose: All animal experiments were approved and performed under the guidelines by the Institutional Animal Care and Use Committee at. The University of Texas at Austin. […] Mice were injected every 4 days for a total of 4 repeated doses. Body weight and general appearance of each mice were monitored for 10 days after the last dose of injection.

[7] = Body weight change at 0.9 mg/kg MMAE equivalent dose; format: in vivo, mice; settings: multiple dosing
Procedure: FIGS. 15A-15E: Body weight change of mice when dosed with 0.9 mg/kg MMAE equivalent dose. […] Body weights of mice during and after treatments were monitored. (n=5). Data shown as mean±standard deviation. Mice in MMAE group (B) were dosed with 0.9 mg/kg MMAE at Day 0 and 4.

MIA PaCa2 xenografts = test: In vivo antitumor efficacy, MIA PaCa2 xenografts; set-up: species or system mice; settings: every 4 days, 4 doses; for tumor growth: 0.5 mg/kg MMAE equivalent
Procedure: Tumor-bearing mouse models: Eight to ten week old athymic female NCr nude mice and C57BL/6 mice (Taconic) were used to establish xenograft mouse model and syngeneic mouse model, respectively. […] The cell suspension was then gently mixed with equal volume of Matrigel® (Corning). Subsequently, 100 μL of each mixed cell suspension (MIA PaCa2 and mT4-2D) was subcutaneously inoculated into both flanks of NCr nude mice and C57BL/6 mice, respectively. After the tumors were palpable, tumor volumes were measured two times a week. The tumor volume was calculated as (1/2×length×[…]).
In vivo antitumor efficacy: Mice bearing MIA PaCa2 xenografts and syngeneic mT4-2D C57BL/6 mice were randomized when the tumor sizes were ˜150 mm^3, respectively. […] Tumor sizes were measured by a digital caliper twice a week starting from Day 0. Mice were euthanized when either tumor volume exceeded 1500 mm^3.
Statistical analysis: All of the experiments were repeated at least three times. Statistical significance was calculated using two-way ANOVA followed by Tukey's test. Survival curve was analyzed by log-rank test using GraphPad Prism 8 software.

[8] = Tissue distribution of free and total MMAE in MIA PaCa2 tumor-bearing mice; format: in vivo; settings: 24 hours after single dose
Procedure: as §5, §6, §7, §8

soft-tissue sarcoma = settings: minimal cardiac toxicity; cited from earlier work
[9] = total MMAE in plasma, 0.5 mg/kg i.v.

SMILES: CCN(c1nc(N)c(C(=O)N=C(N)N)nc1Cl)C(C)C [EIPA, 5-(N-Ethyl-N-isopropyl)amiloride]
- inhibition of uptake of fluorescein-albumin conjugate (ALDC1) (MIA PaCa2 cells [1]): significantly inhibit
- inhibition of uptake of fluorescein-albumin conjugate (ALDC1) (PANC1 cells [2]): significantly inhibit

SMILES: CC[C@H](C)[C@@H]([C@@H](CC(=O)N1CCC[C@H]1[C@H](OC)[C@@H](C)C(=O)N[C@H](C)[C@@H](O)c1ccccc1)OC)N(C)C(=O)[C@@H](NC(=O)[C@@H](NC)C(C)C)C(C)C [MMAE, monomethyl auristatin E] (H-[NMeV]V[Dil][Dolaproine]-X1)
- IC50 (MIA PaCa2 cells [3]; 24 hours): 0.54 nM
- IC50 (MIA PaCa2 cells [3]; 48 hours): 0.46 nM
- IC50 (MIA PaCa2 cells [3]; 72 hours): 0.5 nM
- IC50 (PANC1 cells [4]; 24 hours): 0.52 nM
- IC50 (PANC1 cells [4]; 48 hours): 0.21 nM
- IC50 (PANC1 cells [4]; 72 hours): 0.21 nM
- IC50 (HUVEC cells; 24 hours): 0.067 nM
- IC50 (HUVEC cells; 48 hours): 0.012 nM
- plasma concentration of free MMAE [5]: 0.08603 ± 0.01778 µg/mL
- maximum tolerated dose ([6]; MMAE equivalent dose, every 4 days, 4 doses, body weight change within 20%): approximately 0.5 mg/kg
- loss of body weight [7]: > 20%
- tumor growth (MIA PaCa2 xenografts): slowed down tumor growth

SMILES: CC[C@H](C)[C@@H]([C@@H](CC(=O)N1CCC[C@H]1[C@H](OC)[C@@H](C)C(=O)N[C@H](C)[C@@H](O)c1ccccc1)OC)N(C)C(=O)[C@@H](NC(=O)[C@H](C(C)C)N(C)C(=O)OCc1ccc(NC(=O)[C@H](CCCNC(N)=O)NC(=O)[C@@H](NC(=O)CCCCCN2C(=O)C=CC2=O)C(C)C)cc1)C(C)C [MMAE-MAL, mc-vc-pab-MMAE] ({Hexanoyl(6-maleimido)}-V[Cit][PABC][NMeV]V[Dil][Dolaproine]-X1)
- plasma concentration of free MMAE [5]: 0.66967 ± 0.07894 µg/mL
- premature release of MMAE in plasma compared to the ALDC1 group ([5]; free MMAE, 10 min after dosing, 0.5 mg/kg): 13 fold
- AUC 0-∞ [5, 9]: 141.1938 µg·h/mL
- AUMC 0-∞ [5, 9]: 2827552.1 ng/ml*h^2
- Cl [5, 9]: 3.54E−06 (mg/kg)/(ng/ml)/h
- MRT [5, 9]: 20.02 h
- T1/2 [5, 9]: 27.82 h
- AUC 0-t ([5]; total MMAE in plasma, time 0 to 168 hours, 0.5 mg/kg i.v.): 139.9281 µg·h/mL
- amount of free MMAE in tumor compared to the MMAE group [8]: about 2 fold
- accumulation of free MMAE in tumor ([8]; 0.5 mg/kg MMAE): 2.2 % ID/g
- total MMAE in liver ([8]; 0.5 mg/kg MMAE): 0.3 % ID/g
- total MMAE in tumor ([8]; 0.5 mg/kg MMAE): 3.3 % ID/g
- free MMAE in the liver and kidney ([8]; no statistical difference to MMAE group): low levels
- maximum tolerated dose compared with ALDC1 ([6]; percent weight loss from original weight): lower maximum tolerated dose
- loss of body weight [7]: ~20%
- tumor growth (MIA PaCa2 xenografts): significantly delayed
- median survival of tumor-bearing mice (MIA PaCa2 xenografts; 0.5 mg/kg equivalent to MMAE): 81 days

SMILES: COc1cccc2c1C(=O)c1c(O)c3c(c(O)c1C2=O)C[C@@](O)(/C(CO)=N/NC(=O)CCCCCN1C(=O)C=CC1=O)C[C@@H]3O[C@H]1C[C@H](N)[C@H](O)[C@H](C)O1 [aldoxorubicin]
- safely administered dose compared to doxorubicin (soft-tissue sarcoma): 3.47 fold
